Assay [1] addresses T1, recombinant human adrenergic beta 1 receptors (Homo sapiens, UniProt P08588).
T1 construct: purchased Euroscreen
Kind of assay: Adrenergic β1 selectivity assay, [125I]-Iodocyanopindolol binding to membranes. To be noted: inhibition of [125I]-Iodocyanopindolol binding, read-out: β1 bind pIC50 (converted). As to the method: Membranes containing recombinant human adrenergic beta 1 receptors were obtained from Euroscreen. These were diluted in Assay Buffer (50 mM HEPES, 1 mM EDTA, 120 mM NaCl, 0.1% gelatin, pH 7.4) to provide a final concentration of membranes that gave a clear window between maximum and minimum specific binding.
Assays were performed in U-bottomed 96-well polypropylene plates. 10 μL [^125I]-Iodocyanopindolol (0.036 nM final concentration) and 10 μL of test compound (10× final concentration) were added to each test well. For each assay plate 8 replicates were obtained for [^125I]-Iodocyanopindolol binding in the presence of 10 μL vehicle (10% (v/v) DMSO in Assay Buffer; defining maximum binding) or 10 μL Propranolol (10 μM final concentration; defining non-specific binding (NSB)). Membranes were then added to achieve a final volume of 100 μL. The plates were incubated for 2 hours at room temperature and then filtered onto PEI coated GF/B filter plates, pre-soaked for 1 hour in Assay Buffer, using a 96-well plate Tomtec cell harvester. Five washes with 250 μL wash buffer (50 mM HEPES, 1 mM EDTA, 120 mM NaCl, pH 7.4) were performed at 4° C. to remove unbound radioactivity. The plates were dried then sealed from underneath using Packard plate sealers and MicroScint-O (50 μL) was added to each well. The plates were sealed (TopSeal A) and filter-bound radioactivity was measured with a scintillation counter (TopCount, Packard BioScience) using a 3-minute counting protocol.
Total specific binding (B0) was determined by subtracting the mean NSB from the mean maximum binding. NSB values were also subtracted from values from all other wells. […] Data was fitted to a four parameter logistic equation to determine the compound potency, which was expressed as pIC50 (negative log molar concentration inducing 50% inhibition of [^125I]-Iodocyanopindolol binding).

Assay [2] concerns the target T2, Adrenergic β2 (Homo sapiens, UniProt P07550).
T2 construct: Adherent H292 cells were removed from tissue culture flasks; endogenous in cells; host or cells: H292 cells
Kind of assay: Adrenergic β2 mediated cAMP production in H292 cells (AlphaScreen cAMP detection). The arrangement: key to β2 Int Act: fraction of formoterol maximum activity (formoterol = 1). To be noted: for β2 Int Act: Intrinsic Activity as a fraction relative to the maximum activity determined for formoterol; for EC50: cAMP production, 60 minutes at room temperature, 300 μM rolipram, read-out: β2 pEC50 (converted). The class given is cell-based. A digest of the protocol:
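H292 cells pre-treated 10 min with rolipram (300 μM final), then given agonist for 60 min at room temperature in HBSS/10 mM HEPES pH 7.4, 1.6% DMSO final. Lysate cAMP measured by AlphaScreen against a cAMP standard curve. Four-parameter fit gives pEC50; intrinsic activity relative to formoterol maximum.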
A general note: cAMP levels reflect the balance of adenylyl cyclase and phosphodiesterase activity.

The target of assay [3] is T3, recombinant human Dopamine Subtype D2s receptors (Homo sapiens, UniProt P14416).
T3 construct: purchased Perkin Elmer
Kind of assay: Dopamine D2 selectivity assay, [3H]-spiperone binding to membranes. The note with it: inhibition of [3H]-spiperone binding, read-out: D2 bind pIC50 (converted). As to the method:
Membranes containing recombinant human Dopamine Subtype D2s receptors were obtained from Perkin Elmer. These were diluted in Assay Buffer (50 mM HEPES, 1 mM EDTA, 120 mM NaCl, 0.1% gelatin, pH 7.4) to provide a final concentration of membranes that gave a clear window between maximum and minimum specific binding.
Assays were performed in U-bottomed 96-well polypropylene plates. 30 μL [^3H]-spiperone (0.16 nM final concentration) and 30 μL of test compound (10× final concentration) were added to each test well. For each assay plate 8 replicates were obtained for [^3H]-spiperone binding in the presence of 30 μL vehicle (10% (v/v) DMSO in Assay Buffer; defining maximum binding) or 30 μL Haloperidol (10 μM final concentration; defining non-specific binding (NSB)). Membranes were then added to achieve a final volume of 300 μL. The plates were incubated for 2 hours at room temperature and then filtered onto PEI coated GF/B filter plates, pre-soaked for 1 hour in Assay Buffer, using a 96-well plate Tomtec cell harvester. Five washes with 250 μL wash buffer (50 mM HEPES, 1 mM EDTA, 120 mM NaCl, pH 7.4) were performed at 4° C. to remove unbound radioactivity. The plates were dried then sealed from underneath using Packard plate sealers and MicroScint-0 (50 μL) was added to each well. The plates were sealed (TopSeal A) and filter-bound radioactivity was measured with a scintillation counter (TopCount, Packard BioScience) using a 3-minute counting protocol.
Total specific binding (B0) was determined by subtracting the mean NSB from the mean maximum binding. NSB values were also subtracted from values from all other wells. […] Data was fitted to a four parameter logistic equation to determine the compound potency, which was expressed as pIC50 (negative log molar concentration inducing 50% inhibition of [^3H]-spiperone binding).

Molecules are shown by their SMILES.

T2 sequence (P07550 whole entry): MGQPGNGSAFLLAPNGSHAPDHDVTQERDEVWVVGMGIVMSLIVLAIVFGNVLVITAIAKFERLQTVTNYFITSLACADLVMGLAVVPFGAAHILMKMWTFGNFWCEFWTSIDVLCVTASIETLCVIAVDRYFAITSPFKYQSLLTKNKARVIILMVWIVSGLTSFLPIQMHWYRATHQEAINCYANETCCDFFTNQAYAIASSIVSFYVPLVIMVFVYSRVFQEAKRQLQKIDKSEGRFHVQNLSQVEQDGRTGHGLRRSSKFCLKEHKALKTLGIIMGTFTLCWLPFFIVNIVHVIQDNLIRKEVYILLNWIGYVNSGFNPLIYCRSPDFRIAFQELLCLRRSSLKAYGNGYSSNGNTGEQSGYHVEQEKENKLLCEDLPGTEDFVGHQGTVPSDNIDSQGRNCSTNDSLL
T1 sequence (P08588 whole entry): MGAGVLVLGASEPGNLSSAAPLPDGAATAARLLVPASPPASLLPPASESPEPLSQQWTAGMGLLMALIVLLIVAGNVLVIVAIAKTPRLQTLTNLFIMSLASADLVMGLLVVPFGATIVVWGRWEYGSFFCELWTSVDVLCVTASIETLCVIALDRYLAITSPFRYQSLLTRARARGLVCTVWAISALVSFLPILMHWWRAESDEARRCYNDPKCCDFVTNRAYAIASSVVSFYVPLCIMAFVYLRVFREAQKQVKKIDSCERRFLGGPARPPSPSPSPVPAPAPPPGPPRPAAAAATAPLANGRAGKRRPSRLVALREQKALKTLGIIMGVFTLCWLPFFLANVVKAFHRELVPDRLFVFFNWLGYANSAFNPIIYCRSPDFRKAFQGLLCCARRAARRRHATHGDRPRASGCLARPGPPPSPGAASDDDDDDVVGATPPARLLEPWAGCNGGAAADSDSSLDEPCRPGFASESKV
T3 sequence (P14416 1-414 isoform P14416-2): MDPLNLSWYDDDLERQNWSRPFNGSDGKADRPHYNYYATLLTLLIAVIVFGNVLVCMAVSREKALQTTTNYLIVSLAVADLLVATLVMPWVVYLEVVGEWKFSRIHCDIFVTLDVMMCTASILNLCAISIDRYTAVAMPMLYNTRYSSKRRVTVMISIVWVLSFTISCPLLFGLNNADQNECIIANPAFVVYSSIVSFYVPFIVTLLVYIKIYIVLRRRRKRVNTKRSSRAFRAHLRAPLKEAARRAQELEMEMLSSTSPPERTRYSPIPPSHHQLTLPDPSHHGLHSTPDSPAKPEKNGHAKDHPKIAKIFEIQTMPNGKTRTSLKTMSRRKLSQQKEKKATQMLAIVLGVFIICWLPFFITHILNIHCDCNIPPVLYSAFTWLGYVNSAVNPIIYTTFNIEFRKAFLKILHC

For the compound `O=C(CCOCCc1ccccc1)N(CCNCCc1ccc(O)c2[nH]c(=O)ccc12)C1CCCCC1` [Example 2, N-Cyclohexyl-N-(2-(2-(8-hydroxy-2-oxo-1,2-dihydroquinolin-5-yl)ethylamino)ethyl)-3-phenethoxypropanamide], in assay [1], the IC50 is above 6310 nM. In assay [2], the “β2 Int Act” value is reported as 0.93 and the EC50 is 12.6 nM. Further, the IC50 in assay [3] is above 6310 nM.

Turning to `O=C(CCNCCc1cccc(Cl)c1)N(CCNCCc1ccc(O)c2[nH]c(=O)ccc12)C1CCCCCC1` [Example 3, 3-(3-Chlorophenethylamino)-N-cycloheptyl-N-(2-(2-(8-hydroxy-2-oxo-1,2-dihydroquinolin-5-yl)ethylamino)ethyl)propanamide bis(trifluoroacetate)], the IC50 was 1260 nM in assay [1] and 200 nM in assay [3]. The “β2 Int Act” value in assay [2] was 0.82. The EC50 in assay [2] is 7.94 nM.

Regarding `O=C(CCNCCc1ccc(Cl)cc1)N(CCNCCc1ccc(O)c2[nH]c(=O)ccc12)C1CCCCCC1` [Example 4, 3-(4-Chlorophenethylamino)-N-cycloheptyl-N-(2-(2-(8-hydroxy-2-oxo-1,2-dihydroquinolin-5-yl)ethylamino)ethyl)propanamide bis(trifluoroacetate)], the IC50 in assay [1] is 3160 nM; in assay [3], 79.4 nM. In addition, the “β2 Int Act” value in assay [2] came out at 0.79. Also, the EC50 in assay [2] was 20 nM.

`CCOc1cccc(CCNCCC(=O)N(CCNCCc2ccc(O)c3[nH]c(=O)ccc23)C2CCCCCC2)c1` [Example 11, N-Cycloheptyl-3-(3-ethoxyphenethylamino)-N-(2-(2-(8-hydroxy-2-oxo-1,2-dihydroquinolin-5-yl)ethylamino)ethyl)propanamide bis(trifluoroacetate)]: the IC50 was above 10000 nM in assay [1] and 501 nM in assay [3]. For the same compound, the “β2 Int Act” value in assay [2] was determined as 0.65. Besides, the EC50 in assay [2] was 79.4 nM.

For the compound `O=C(CCNCCc1cccc(Cl)c1)N(CCNCCc1ccc(O)c2[nH]c(=O)ccc12)C1CCCCC1` [Example 13, 3-(3-Chlorophenethylamino)-N-cyclohexyl-N-(2-(2-(8-hydroxy-2-oxo-1,2-dihydroquinolin-5-yl)ethylamino)ethyl)propanamide bis(trifluoroacetate)], the IC50 in assay [1] was above 10000 nM. Also, in assay [2], the “β2 Int Act” value was found to be 0.86 and the EC50 is 7.94 nM. The IC50 in assay [3] was 50.1 nM.

For `O=C(CCNCCc1ccc(Cl)cc1)N(CCNCCc1ccc(O)c2[nH]c(=O)ccc12)C1CCCCC1` [Example 14, 3-(4-Chlorophenethylamino)-N-cyclohexyl-N-(2-(2-(8-hydroxy-2-oxo-1,2-dihydroquinolin-5-yl)ethylamino)ethyl)propanamide bis(trifluoroacetate)], the IC50 in assay [1] was above 10000 nM; in assay [3], 251 nM. Besides, the “β2 Int Act” value in assay [2] stood at 0.88. Besides, the EC50 in assay [2] is 20 nM.

As to `O=C(CCNCCc1cc(F)cc(F)c1)N(CCNCCc1ccc(O)c2[nH]c(=O)ccc12)C1CCCCC1` [Example 15, N-Cyclohexyl-3-(3,5-difluorophenethylamino)-N-(2-(2-(8-hydroxy-2-oxo-1,2-dihydroquinolin-5-yl)ethylamino)ethyl)propanamide bis(trifluoroacetate)], the IC50 in assay [1] is above 10000 nM. For the same compound, in assay [2], the “β2 Int Act” value is 0.88 and the EC50 is 7.94 nM. In addition, in assay [3], the IC50 was 1260 nM.

Take `O=C(CCNCCc1cc(F)ccc1F)N(CCNCCc1ccc(O)c2[nH]c(=O)ccc12)C1CCCCC1` [Example 17, N-Cyclohexyl-3-(2,5-difluorophenethylamino)-N-(2-(2-(8-hydroxy-2-oxo-1,2-dihydroquinolin-5-yl)ethylamino)ethyl)propanamide bis(trifluoroacetate)]: the IC50 in assay [1] was 12600 nM. Besides, in assay [2], the “β2 Int Act” value came out at 0.93 and the EC50 is 3.98 nM. The IC50 in assay [3] is 1260 nM.

As to `O=C(CCNCCc1cccc(F)c1F)N(CCNCCc1ccc(O)c2[nH]c(=O)ccc12)C1CCCCC1` [Example 18, N-Cyclohexyl-3-(3-difluorophenethylamino)-N-(2-(2-(8-hydroxy-2-oxo-1,2-dihydroquinolin-5-yl)ethylamino)ethyl)propanamide bis(trifluoroacetate)], in assay [1], the IC50 was above 10000 nM. Besides, in assay [2], the “β2 Int Act” value was 0.95 and the EC50 is 12.6 nM. Besides, in assay [3], the IC50 is 3160 nM.

Consider `O=CNc1cc(CCNCCN(C(=O)CCNCCc2ccccc2)C2CCCCC2)ccc1O` [Example 21, N-Cyclohexyl-N-(2-(3-formamido-4-hydroxyphenethylamino)ethyl)-3-(phenethylamino)propanamide], for which the IC50 was above 10000 nM in assay [1] and 1260 nM in assay [3]. Further, the “β2 Int Act” value in assay [2] is on record as 0.83. Besides, the EC50 in assay [2] is 31.6 nM.

In the case of `O=C(CCNCCc1ccccc1)N(CCNCCc1ccc(O)c(O)c1)C1CCCCC1` [Example 22, N-Cyclohexyl-N-(2-(3,4-dihydroxyphenethylamino)ethyl)-3-(phenethylamino)propanamide bis(trifluoroacetate)], the figures for the IC50 in assay [1] and in assay [3] were 2510 nM and 501 nM, respectively. For the same compound, in assay [2], the “β2 Int Act” value came out at 1.01. Moreover, in assay [2], the EC50 was 20 nM.

As for `O=C1COc2c(CCNCCN(C(=O)CCNCCc3ccccc3)C3CCCCC3)ccc(O)c2N1` [Example 23, N-Cyclohexyl-N-(2-(2-(5-hydroxy-3-oxo-3,4-dihydro-2H-benzo[b][1,4]oxazin-8-yl)ethylamino)ethyl)-3-(phenethylamino)propanamide bis(trifluoroacetate)], the IC50 in assay [1] is 631 nM. In assay [2], the “β2 Int Act” value amounted to 0.79 and the EC50 was 0.631 nM. In addition, the IC50 in assay [3] was 316 nM.

For the compound `O=C1COc2c(CCNCCN(C(=O)CCNCCc3ccccc3)C3CCCCCC3)ccc(O)c2N1` [Example 24, N-Cycloheptyl-N-(2-(2-(5-hydroxy-3-oxo-3,4-dihydro-2H-benzo[b][1,4]oxazin-8-yl)ethylamino)ethyl)-3-(phenethylamino)propanamide bis(trifluoroacetate)], the IC50 was 631 nM in assay [1] and 158 nM in assay [3]. Besides, the “β2 Int Act” value in assay [2] is given as 0.85. The EC50 in assay [2] was 1 nM.

For `CCCC[C@@H](C)N(CCNCCc1ccc(O)c2c1OCC(=O)N2)C(=O)CCNCCc1ccccc1` [Example 25, (R)—N-(Hexan-2-yl)-N-(2-(2-(5-hydroxy-3-oxo-3,4-dihydro-2H-benzo[b][1,4]oxazin-8-yl)ethylamino)ethyl)-3-(phenethylamino)propanamide bis(trifluoroacetate)], the IC50 was 2510 nM in assay [1] and 100 nM in assay [3]. Further, the “β2 Int Act” value in assay [2] was determined as 0.9. Also, the EC50 in assay [2] is 1 nM.

For `O=C1COc2c(CCNCCN(C(=O)CCNCCc3ccc(Cl)c(Cl)c3)C3CCCCCC3)ccc(O)c2N1` [Example 26, N-Cycloheptyl-3-(3,4-dichlorophenethylamino)-N-(2-(2-(5-hydroxy-3-oxo-3,4-dihydro-2H-benzo[b][1,4]oxazin-8-yl)ethylamino)ethyl)propanamide bis(trifluoroacetate)], the IC50 in assay [1] is 2000 nM. Further, in assay [2], the “β2 Int Act” value was determined as 0.74 and the EC50 is 2.51 nM. The IC50 in assay [3] is 31.6 nM.

The values above are taken from patent US20100056508A1, “AMINE DERIVATIVES AND THEIR USE IN BETA-2-ADRENORECEPTOR MEDIATED DISEASES” (ASTRAZENECA AB, priority 2006, published 2010).
